The results in this text go back to patent US20220009920A1 (GB005, Inc., priority 2020, published 2022).

Like-named read-outs stand apart in the source and are kept apart here.

For series [1], the target named is FER (Homo sapiens, UniProt P16591). Description: Large panel kinase profiling. The series is classed as biochemical. As to conditions: 1 μM test article, 1 mM ATP. As for the experimental part: (§1) Large panel kinase profiling was performed at AssayQuant Technologies, Inc. 260 Cedar Hill Street, Marlborough, Mass. 01752 using the PhosphoSens® CSox-Sensor platform using 1 μM test article concentration and 1 mM ATP concentration (www.assayquant.com). Reactions were run in Corning, half-area 96-well, white flat round bottom polystyrene NBS microplates (Cat. #3642) after sealing using optically-clear adhesive film (TopSealA-Plus plate seal, PerkinElmer), applied with either a roller or a paddle to eliminate evaporation and resulting drift. The standard total reaction volume was 50 μL. All experiments were ran at 30° C. to control for fluctuations in ambient temperature. Plates were read from the top in kinetic mode (readings taken every 1 min), monitoring fluorescence intensity with filters using Ex 360 nm and Em 485 nm and a band width of 40 and 20 nm, respectively, and a gain of 80. Data analysis was performed using either Graphpad Prism or Gene Data Screener software.
FER, sequence (P16591 whole entry, species assumed): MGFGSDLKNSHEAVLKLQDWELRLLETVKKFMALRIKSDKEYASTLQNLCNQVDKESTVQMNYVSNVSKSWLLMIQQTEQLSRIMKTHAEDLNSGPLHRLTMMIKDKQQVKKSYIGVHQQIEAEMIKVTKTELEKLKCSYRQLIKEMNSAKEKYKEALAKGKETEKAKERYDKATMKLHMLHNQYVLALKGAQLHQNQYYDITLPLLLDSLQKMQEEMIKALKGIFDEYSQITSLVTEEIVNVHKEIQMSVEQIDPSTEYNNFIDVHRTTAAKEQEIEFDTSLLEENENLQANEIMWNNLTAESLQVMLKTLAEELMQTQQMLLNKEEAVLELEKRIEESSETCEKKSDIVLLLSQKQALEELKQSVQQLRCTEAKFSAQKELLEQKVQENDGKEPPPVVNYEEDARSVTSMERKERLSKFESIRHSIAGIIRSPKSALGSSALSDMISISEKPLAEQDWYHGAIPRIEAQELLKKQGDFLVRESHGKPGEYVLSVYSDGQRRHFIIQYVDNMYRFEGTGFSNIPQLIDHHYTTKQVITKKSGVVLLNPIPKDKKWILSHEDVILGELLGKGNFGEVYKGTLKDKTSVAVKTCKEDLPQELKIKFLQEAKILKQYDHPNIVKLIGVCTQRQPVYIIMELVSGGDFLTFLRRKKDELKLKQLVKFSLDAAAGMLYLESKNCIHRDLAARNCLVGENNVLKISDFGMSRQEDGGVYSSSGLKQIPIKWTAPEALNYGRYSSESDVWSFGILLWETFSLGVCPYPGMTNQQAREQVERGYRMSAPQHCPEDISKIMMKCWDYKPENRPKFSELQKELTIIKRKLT

Series [2] has as its target T1, DYRK1A (Homo sapiens, UniProt Q13627).
T1 construct: AssayQuant Technologies, Inc. (service laboratory)
Description: Large panel kinase profiling. The series is classed as biochemical. The conditions noted are these: 1 μM test article, 1 mM ATP. How it is done: as §1

In series [3] the target is T2, DYRK1B (Homo sapiens, UniProt Q9Y463).
T2 construct: AssayQuant Technologies, Inc. (service laboratory)
T2 sequence (Q9Y463 whole entry, species assumed): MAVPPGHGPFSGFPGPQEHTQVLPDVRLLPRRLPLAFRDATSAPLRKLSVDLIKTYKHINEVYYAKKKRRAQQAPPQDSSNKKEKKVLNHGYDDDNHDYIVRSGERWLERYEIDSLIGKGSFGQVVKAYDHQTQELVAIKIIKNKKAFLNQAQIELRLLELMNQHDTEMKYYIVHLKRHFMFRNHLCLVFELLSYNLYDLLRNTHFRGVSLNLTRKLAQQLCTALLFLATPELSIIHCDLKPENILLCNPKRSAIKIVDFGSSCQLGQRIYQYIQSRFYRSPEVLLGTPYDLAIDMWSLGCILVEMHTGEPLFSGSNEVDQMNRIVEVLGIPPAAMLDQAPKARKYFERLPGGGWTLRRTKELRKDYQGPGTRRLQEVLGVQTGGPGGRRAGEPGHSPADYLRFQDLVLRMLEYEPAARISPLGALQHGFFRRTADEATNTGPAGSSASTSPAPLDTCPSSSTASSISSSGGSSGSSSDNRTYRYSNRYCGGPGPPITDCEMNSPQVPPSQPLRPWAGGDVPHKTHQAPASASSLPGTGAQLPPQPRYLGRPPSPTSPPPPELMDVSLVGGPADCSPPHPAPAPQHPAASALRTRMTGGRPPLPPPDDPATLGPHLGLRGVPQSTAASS
Kind of series: Large panel kinase profiling. The series is classed as biochemical. The conditions noted are these: 1 μM test article, 1 mM ATP. How it is done: as §1

The target of series [4] is T3, CRIK/CIT (Homo sapiens, UniProt O14578).
T3 construct: AssayQuant Technologies, Inc. (ran the panel)
T3 sequence (O14578 whole entry): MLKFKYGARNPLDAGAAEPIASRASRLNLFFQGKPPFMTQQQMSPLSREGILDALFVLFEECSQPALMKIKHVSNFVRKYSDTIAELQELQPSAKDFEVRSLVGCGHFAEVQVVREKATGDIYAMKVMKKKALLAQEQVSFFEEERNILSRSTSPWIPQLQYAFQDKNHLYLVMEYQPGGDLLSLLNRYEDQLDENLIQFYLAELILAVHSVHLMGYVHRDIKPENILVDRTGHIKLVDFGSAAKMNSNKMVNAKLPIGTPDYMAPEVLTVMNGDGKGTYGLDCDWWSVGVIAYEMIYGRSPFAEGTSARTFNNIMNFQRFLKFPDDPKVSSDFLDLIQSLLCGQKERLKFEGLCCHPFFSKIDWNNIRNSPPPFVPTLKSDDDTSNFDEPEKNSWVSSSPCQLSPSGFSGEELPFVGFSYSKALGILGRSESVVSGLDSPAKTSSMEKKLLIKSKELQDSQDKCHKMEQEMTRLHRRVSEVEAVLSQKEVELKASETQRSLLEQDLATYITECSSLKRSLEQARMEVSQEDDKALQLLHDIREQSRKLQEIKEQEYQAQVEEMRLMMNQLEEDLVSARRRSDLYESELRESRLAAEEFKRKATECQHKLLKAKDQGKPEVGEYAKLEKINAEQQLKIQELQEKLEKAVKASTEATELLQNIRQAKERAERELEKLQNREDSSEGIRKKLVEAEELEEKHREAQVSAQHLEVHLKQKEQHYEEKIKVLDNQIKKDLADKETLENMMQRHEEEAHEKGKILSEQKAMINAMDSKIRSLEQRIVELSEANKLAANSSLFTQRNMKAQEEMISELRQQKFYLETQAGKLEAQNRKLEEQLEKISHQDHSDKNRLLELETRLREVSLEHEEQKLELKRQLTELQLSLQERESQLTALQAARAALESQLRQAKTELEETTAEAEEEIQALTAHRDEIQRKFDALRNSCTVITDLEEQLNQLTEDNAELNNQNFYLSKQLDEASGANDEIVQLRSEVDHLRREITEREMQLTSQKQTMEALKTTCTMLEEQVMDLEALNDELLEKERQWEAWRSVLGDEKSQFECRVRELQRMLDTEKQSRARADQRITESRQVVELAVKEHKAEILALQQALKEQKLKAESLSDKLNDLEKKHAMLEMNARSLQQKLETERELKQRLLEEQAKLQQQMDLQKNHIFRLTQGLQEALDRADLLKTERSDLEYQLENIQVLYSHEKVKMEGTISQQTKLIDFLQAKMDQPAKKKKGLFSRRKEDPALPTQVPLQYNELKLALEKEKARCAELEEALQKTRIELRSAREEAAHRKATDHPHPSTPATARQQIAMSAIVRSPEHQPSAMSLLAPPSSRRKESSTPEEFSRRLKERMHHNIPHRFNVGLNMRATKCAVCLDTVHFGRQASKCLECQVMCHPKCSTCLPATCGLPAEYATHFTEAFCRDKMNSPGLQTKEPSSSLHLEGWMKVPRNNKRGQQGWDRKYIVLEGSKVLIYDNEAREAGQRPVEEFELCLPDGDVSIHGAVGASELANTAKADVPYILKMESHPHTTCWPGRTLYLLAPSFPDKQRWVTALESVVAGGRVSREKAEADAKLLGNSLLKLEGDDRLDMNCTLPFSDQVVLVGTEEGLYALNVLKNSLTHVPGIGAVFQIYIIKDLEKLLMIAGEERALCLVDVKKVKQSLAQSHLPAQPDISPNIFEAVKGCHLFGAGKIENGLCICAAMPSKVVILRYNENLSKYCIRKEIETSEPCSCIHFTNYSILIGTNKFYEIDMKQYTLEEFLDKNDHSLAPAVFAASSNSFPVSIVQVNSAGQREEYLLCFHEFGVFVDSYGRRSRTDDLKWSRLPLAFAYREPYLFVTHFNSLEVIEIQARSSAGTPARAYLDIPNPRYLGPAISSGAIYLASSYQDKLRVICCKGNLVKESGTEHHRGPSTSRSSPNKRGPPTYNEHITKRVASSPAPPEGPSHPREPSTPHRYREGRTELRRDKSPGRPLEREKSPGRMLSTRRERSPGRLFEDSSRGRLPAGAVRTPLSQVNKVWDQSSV
Description: Large panel kinase profiling. The conditions noted are these: 1 μM test article, 1 mM ATP. Type of series: biochemical. How it is done:
as §1

Series [5] addresses T4, TYK2(JH1) (Homo sapiens, UniProt P29597).
T4 construct: TYK2(JH1); AssayQuant Technologies, Inc. (contract laboratory that ran the panel)
T4 sequence (P29597 897-1176 limits assumed): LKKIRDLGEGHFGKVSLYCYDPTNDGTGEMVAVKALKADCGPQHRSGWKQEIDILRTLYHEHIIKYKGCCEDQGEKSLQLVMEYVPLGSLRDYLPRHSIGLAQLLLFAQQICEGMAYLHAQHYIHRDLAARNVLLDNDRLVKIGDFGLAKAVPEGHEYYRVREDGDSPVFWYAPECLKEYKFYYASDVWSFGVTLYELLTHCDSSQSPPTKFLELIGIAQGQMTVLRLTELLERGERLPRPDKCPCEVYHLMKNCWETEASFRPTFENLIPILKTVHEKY
Kind of series: Large panel kinase profiling. As to conditions: 1 μM test article, 1 mM ATP. Type of series: biochemical. How it is done:
as §1

Series [6] has as its target T5, CDK6/D3 (Homo sapiens, UniProt Q00534).
T5 construct: AssayQuant Technologies, Inc. (ran the panel)
Description: Large panel kinase profiling. The series is classed as biochemical. As to conditions: 1 μM test article, 1 mM ATP. How it is done: as §1

Series [7] concerns the target T6, SRPK2 (Homo sapiens, UniProt P78362).
T6 construct: AssayQuant Technologies, Inc. (contract assay)
Kind of series: Large panel kinase profiling. Type of series: biochemical. The conditions noted are these: 1 μM test article, 1 mM ATP. How it is done:
as §1

The target of series [8] is T7, EPHA6 (Homo sapiens, UniProt Q9UF33).
T7 sequence (Q9UF33 23-1036): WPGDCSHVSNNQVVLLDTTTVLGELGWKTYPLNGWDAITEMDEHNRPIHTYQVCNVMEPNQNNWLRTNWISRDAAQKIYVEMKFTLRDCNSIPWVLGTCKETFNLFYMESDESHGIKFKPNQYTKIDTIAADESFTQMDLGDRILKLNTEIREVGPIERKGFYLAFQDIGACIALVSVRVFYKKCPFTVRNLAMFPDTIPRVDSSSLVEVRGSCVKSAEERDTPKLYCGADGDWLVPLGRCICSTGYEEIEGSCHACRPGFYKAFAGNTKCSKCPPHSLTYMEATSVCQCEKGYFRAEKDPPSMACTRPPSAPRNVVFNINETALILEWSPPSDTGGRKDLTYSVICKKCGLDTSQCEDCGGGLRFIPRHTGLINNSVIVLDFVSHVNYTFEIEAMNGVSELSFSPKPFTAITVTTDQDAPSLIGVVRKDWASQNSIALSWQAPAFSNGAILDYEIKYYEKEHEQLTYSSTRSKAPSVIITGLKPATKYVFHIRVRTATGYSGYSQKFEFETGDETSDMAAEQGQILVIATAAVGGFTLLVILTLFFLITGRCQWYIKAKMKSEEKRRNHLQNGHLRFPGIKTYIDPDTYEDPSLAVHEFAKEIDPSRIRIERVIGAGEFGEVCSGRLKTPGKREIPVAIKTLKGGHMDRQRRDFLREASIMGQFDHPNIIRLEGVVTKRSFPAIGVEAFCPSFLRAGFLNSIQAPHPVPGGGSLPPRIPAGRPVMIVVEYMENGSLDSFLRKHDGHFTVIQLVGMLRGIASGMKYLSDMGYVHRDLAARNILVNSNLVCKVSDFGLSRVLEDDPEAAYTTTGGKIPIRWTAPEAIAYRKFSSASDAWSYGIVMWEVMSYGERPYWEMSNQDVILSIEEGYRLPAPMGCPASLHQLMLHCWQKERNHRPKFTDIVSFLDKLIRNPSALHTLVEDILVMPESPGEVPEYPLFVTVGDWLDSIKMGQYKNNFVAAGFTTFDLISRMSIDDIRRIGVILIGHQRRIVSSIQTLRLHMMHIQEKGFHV
Description: Large panel kinase profiling. The series is classed as biochemical. The conditions noted are these: 1 μM test article, 1 mM ATP. How it is done: as §1

Series [9] addresses T8, MAPK9/JNK2 (Homo sapiens, UniProt P45984).
T8 construct: AssayQuant Technologies, Inc. (service provider)
Kind of series: Large panel kinase profiling. The series is classed as biochemical. As to conditions: 1 μM test article, 1 mM ATP. How it is done:
as §1

The nature of series [10]: Plasma and total brain concentrations at 1 h post single oral administration to female C57BL/6 mice. Type of series: in vivo. As to conditions: mouse, 10 mg/kg oral gavage; for Kp at 1 h: brain/plasma, read-out: brain to plasma ratio. How it is done: The appropriate amount of test article was dissolved 10% dimethylacetamide (DMA)/90% (20% hydroxypropyl-β-cyclodextrin (HP-B-CD) w/v in water to obtain a final concentration of 1 mg/mL for oral dosing. Sonication, vortex, and homogenization was used as needed. Three female C57BL/6 mice aged 7-9 weeks (20-30 grams) were dosed by oral gavage 10 mg/kg solution of the test article.
Concentrations of test compounds in the plasma and brain samples (use plasma and brain homogenate standard curve for all samples appropriately) were analyzed using LC-MS/MS. Compounds having a brain-to-plasma ratio of greater than 0.2 were considered brain penetrant.

[11] abbreviates: plasma, read-out: Mean [plasma].

T6 sequence (P78362 whole entry, species assumed): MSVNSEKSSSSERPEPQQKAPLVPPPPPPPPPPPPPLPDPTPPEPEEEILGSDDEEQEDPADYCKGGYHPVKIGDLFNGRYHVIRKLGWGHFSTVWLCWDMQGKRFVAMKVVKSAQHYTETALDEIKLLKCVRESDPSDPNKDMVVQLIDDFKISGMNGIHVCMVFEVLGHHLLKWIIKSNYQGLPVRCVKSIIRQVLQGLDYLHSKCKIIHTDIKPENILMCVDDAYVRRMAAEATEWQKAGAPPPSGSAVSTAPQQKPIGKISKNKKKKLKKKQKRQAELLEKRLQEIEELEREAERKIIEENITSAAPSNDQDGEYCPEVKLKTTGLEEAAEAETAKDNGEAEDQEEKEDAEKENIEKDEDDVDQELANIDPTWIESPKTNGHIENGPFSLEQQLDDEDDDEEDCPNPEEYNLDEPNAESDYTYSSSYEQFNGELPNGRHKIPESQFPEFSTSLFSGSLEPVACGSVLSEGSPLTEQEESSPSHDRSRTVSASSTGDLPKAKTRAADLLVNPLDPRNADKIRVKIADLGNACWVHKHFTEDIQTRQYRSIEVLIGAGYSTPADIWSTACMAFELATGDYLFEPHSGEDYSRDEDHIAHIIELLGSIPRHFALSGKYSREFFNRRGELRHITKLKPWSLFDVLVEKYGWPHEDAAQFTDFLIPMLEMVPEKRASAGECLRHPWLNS
T5 sequence (Q00534 whole entry, species assumed): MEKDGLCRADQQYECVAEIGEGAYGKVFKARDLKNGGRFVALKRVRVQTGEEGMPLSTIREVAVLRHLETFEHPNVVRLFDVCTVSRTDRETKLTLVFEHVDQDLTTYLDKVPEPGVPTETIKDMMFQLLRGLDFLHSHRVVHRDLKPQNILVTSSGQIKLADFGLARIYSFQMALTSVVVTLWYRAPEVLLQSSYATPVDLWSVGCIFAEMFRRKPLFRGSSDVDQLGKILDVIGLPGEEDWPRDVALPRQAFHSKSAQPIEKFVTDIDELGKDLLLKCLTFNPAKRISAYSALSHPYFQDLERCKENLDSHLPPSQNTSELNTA
T5 sequence (P30281 whole entry partner, species assumed): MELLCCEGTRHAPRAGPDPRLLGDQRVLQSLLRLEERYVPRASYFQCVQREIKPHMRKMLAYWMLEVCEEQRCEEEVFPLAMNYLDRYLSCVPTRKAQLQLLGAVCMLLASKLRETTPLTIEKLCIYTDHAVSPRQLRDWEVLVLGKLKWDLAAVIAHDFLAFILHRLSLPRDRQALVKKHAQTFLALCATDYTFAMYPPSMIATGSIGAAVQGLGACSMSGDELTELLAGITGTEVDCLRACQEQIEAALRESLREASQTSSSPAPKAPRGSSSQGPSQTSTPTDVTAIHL

One may read the inhibition as the relative decrease from the control value, in per cent. Turning to `C=CC(=O)N1CCCC(c2c(F)cc(C(N)=O)c3[nH]c4c(c23)CCCCC4)C1` (single isomer, unassigned) [Compound 5-6], the inhibition at 1 µM was 32% in series [1]; 20.4% in series [2]; 16.1% in [3]; -9.9% in series [4]; -2.7% in [5]; -8% in series [6]. The inhibition at 1 µM was 24.9% in [7], 6.1% in series [8] and -6.3% in [9]. The concentration at 1 h in [10] (brain, read-out: Mean [brain]) is 16 ng/g; in series [10] (setting [11]), 42 ng/mL. Also, in [10], the Kp at 1 h was 0.4.
Turning to `C=CC(=O)N1CCC[C@@H](c2c(F)cc(C(N)=O)c3[nH]c4c(c23)CC2(CC4)CC2)C1` [Compound 6-2, (S)-5-(1-acryloylpiperidin-3-yl)-6-fluoro-1,2,4,9-tetrahydrospiro[carbazole-3,1′-cyclopropane]-8-carboxamide], the inhibition at 1 µM is 2.1% in series [1]; -2.2% in [2]; -0.2% in [3]; 9.1% in series [4]; -1.1% in series [5]; -6.1% in [6]. The inhibition at 1 µM was -60.6% in series [7], -14.6% in [8] and 19.7% in series [9]. Further, the concentration at 1 h in [10] (brain, read-out: Mean [brain]) stood at 18 ng/g; in series [10] (setting [11]), 78 ng/mL. For the same molecule, the Kp at 1 h in series [10] came to 0.24.
Regarding `C=CC(=O)N1CCC[C@@H](c2c(F)cc(C(N)=O)c3[nH]c4c(c23)CCC4)C1` [Compound 10-2, (S)-8-(1-acryloylpiperidin-3-yl)-7-fluoro-1,2,3,4-tetrahydrocyclo-penta[b]indole-5-carboxamide], the inhibition at 1 µM is 29.3% in series [1]; 7.2% in series [2]; 6.6% in [3]; 11.1% in series [4]; 3.5% in [5]; -18.4% in [6]. Besides, the inhibition at 1 µM is -29.1% in series [7], -17.7% in series [8] and 3.8% in series [9]. Moreover, the concentration at 1 h was determined as 72 ng/g in series [10] (brain, read-out: Mean [brain]) and 191 ng/mL in series [10] (setting [11]). Also, the Kp at 1 h in series [10] turned out to be 0.37.
